Assay results as given in US20230116113A1, “USE OF COMPOUNDS THAT ARE ABLE TO CROSS-LINK THE EXTRACELLULAR MATRIX FOR PREVENTING OR INHIBITING THE MIGRATION OF CANCER CELLS” (CAMBRIDGE ENTERPRISE LIMITED, priority 2020, published 2023).
“Also recorded” adds a separate entry of the source. Blank lines part the entries; values can stand above or below the compound they belong to.

Legend:
[1] = system: K7M2 mouse osteosarcoma cell line; test: Invasion of K7M2 osteosarcoma tumour spheroids into 3D 1.5 mg/ml collagen-medium model ECM; type: cell-based; settings: monitored for 14 days
Protocol: Bone extracellular matrix consists primarily of calcified collagen type I. Calcification is invariably disrupted around metastasizing osteosarcoma tumours, allowing tumour cells to migrate through the extracellular matrix. Thus, we chose to model the bone/osteosarcoma extracellular matrix with a 3D 1.5 mg/ml collagen gel. This concentration of collagen gel promoted invasion by the K7M2 mouse osteosarcoma cell line (FIG. 9).
Collagen gels (1.5 mg/ml) in DMEM complete medium as model bone extracellular matrix was prepared from a stock 5 wt % collagen gel (IBIDI, Germany). K7M2 cells were cultured in DMEM complete medium supplemented with 10% foetal calf serum, antibiotics, and pyruvate. The cultures were maintained in T-75 cm^2 culture flasks and incubated at 37° C. and 5% CO2 in a humidified incubator. At 70% confluence, cells were detached from the surface of the flasks after incubating for 2 min at room temperature with 4 ml of trypsin-EDTA. The cell suspension was then centrifuged at 1400 rpm for 5 min at room temperature to pellet the cells. […]
Cell invasion was monitored for 14 days (FIG. 10). […]

[2] = cited from earlier work
[3] = system: U87 GBM cells
Protocol: Calcein AM (acetoxymethyl), a non-fluorescent ester derivative of the fluorescent calcein dye, was used to determine the viability and integrity of spheroids. Spheroids were soaked in 1 uM calcein-AM in live cell imaging buffer for 45 minutes in a humidified 5% CO2 incubator. After incubation, the calcein-AM solution was removed, spheroids were washed three times with PBS and transferred with 50 μl of media to the top of hyaluronic acid-serum gels in chamber slide wells prepared as above. In controls, spheroids were placed into the wells with 300 μl of MEM complete supplemented medium.
(§1) Migration of cells from the spheroids, cell viability and the vertical position of the spheroid in the well were recorded on days 4, 7 and 16 using bright field, epifluorescence or confocal microscopy, before the samples were returned to the incubator to continue the experiment.

[4] = system: U87 GBM cells; test: Migration and proliferation of cells from U87 tumour spheroids in 3D hyaluronic acid-serum model brain ECM; type: cell-based; settings: 5, 10 and 20 mM trientine mixed into 2 wt % HA-serum model ECM; days 1, 3, 6, 10
Excerpt: We first established a 3D extracellular matrix (ECM) model for brain consisting of hyaluronic acid mixed with serum proteins to support GBM cell metabolism. We then used tumour spheroids, cultured from U87 GBM cell line cells, as 3D tumour models that we implanted into the hyaluronic acid-serum model brain ECM.
We fabricated hyaluronic acid-serum model brain ECMs containing 2 wt %, 3.5 wt % and 5 wt % hyaluronic acid to represent low, normal and high hyaluronic acid concentrations/levels of molecular entanglement with respect to brain extracellular matrix. The low hyaluronic acid concentration model ECMs can be expected to mimic an in vivo situation where there is substantial hyaluronic acid degradation and the high hyaluronic acid concentration was set to exceed the average hyaluronic acid concentration in brain ECM by 50%.
The different concentrations of hyaluronic acid-serum for model ECMs were prepared by mixing hyaluronic acid with MEM complete media and foetal calf serum. […]
as §1

[5] = system: U87 cells; settings: different trientine concentrations in phosphate-buffered saline
Protocol: FIG. 6: A. Optical images showing the effect of crosslinking 3D model brain ECM ionically with 5, 10 and 20 mM trientine on the migration of glioblastoma U87 cells from tumour spheroids compared to controls with no trientine crosslinking. […] B. Quantification of the extent of cancer cell migration in the 3D model brain ECM with addition of different trientine concentrations. C.

Structure (SMILES): COC(=O)C1=CO[C@@H](O)[C@@H]2C(CO)=CC[C@H]12 [genipin]
cell invasion of model collagen extracellular matrix ([1]; 0.05 wt % genipin in 1.5 mg/ml collagen gel): only minimal invasion
cell invasion of model collagen extracellular matrix ([1]; 0.3 wt % genipin in 1.5 mg/ml collagen gel): no observable cell invasion
acute toxicity ([2]; literature statement): low acute toxicity
LD50 ([2]; mouse, in vivo, iv): 153 mg/kg

cell metabolic activity (calcein-AM staining) [3]: remained metabolically active
Structure (SMILES): Cc1cc2nc3c(=O)[nH]c(=O)nc-3n(C[C@H](O)[C@H](O)[C@H](O)CO)c2cc1C [riboflavin]

Structure (SMILES): NCCNCCNCCN [trientine]
cell migration from U87 tumour spheroids [4]: inhibited in a trientine-concentration dependent manner; also recorded: clearly inhibited
toxicity to U87 cells (live/dead cell analysis) [5]: non-toxic to U87 cells
